The text below walks through data of US12448388B2, “PRMT5 inhibitors and uses thereof” (Gilead Sciences, Inc., priority 2023, dated 2025).

A word on the solubility: it is the dissolved amount per volume that the medium holds.

The nature of series [1]: Hepatocyte stability assay, human. Format: in vitro ADME. The settings on record: human hepatocytes, 1 μM. In short, it runs like this:
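Cryopreserved hepatocytes (viability ≥85%) incubated with 1 μM compound at 1×10^6 cells/mL in KHB, 37 °C, 95% air/5% CO2, sampled at 0, 1, 3 and 6 h. Parent remaining quantified by LC-MS/MS; half-life from first-order exponential fit (ln2/k), scaled to intrinsic hepatic clearance.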

The nature of series [2]: PBS solubility (kinetic solubility from DMSO stocks). Format: physicochemical. The note with it: 22 °C, aqueous buffer, kinetic from dmso stock; 1x PBS pH 7.4, 1.0% DMSO, 24-hour incubation at ambient temperature. In short, it runs like this:
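Kinetic solubility in 1× PBS pH 7.4 with 1.0% final DMSO, maximum theoretical concentration 100 μM from 10 mM stock. After 24 h at ambient temperature (20.8-24.0 °C) the samples were vacuum-filtered and filtrates quantified by nitrogen detection against a calibration curve. Values were background-corrected and reported in μM and μg/mL.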

Series [3] in a line: Pharmacokinetics in cassette in male Sprague-Dawley rats for Kp measurement. Format: in vivo. The settings on record: 1 mg/kg, intravenous. How it is done:
E.1 Test Animal: Male Sprague-Dawley Rats (225-300 g) with Indwelling Bilateral Jugular Vain Cannula (JVC/JVC) or Single Jugular Vein Cannula (JVC)
E.2 Pharmaceutical Formulation and Administration
Test compound was dissolved in the vehicle of 10% DMSO, 10% ethanol, 40% polyethylene glycol 300, and 40% propylene glycol to get 1 mg/mL test compound solution. The compound was administered by intravenous administration at a dose of 1 mL/kg. Fasting was not required.
• Anticoagulant: K2EDTA • Volume: approximately 225 μL blood at each bleed • Jugula vein via syringe and needle or another method (non-terminal samples) or exsanguination (cardiac puncture) under isoflurane (or CO2 inhalation if isoflurane is unavailable) anesthesia (terminal time points). Blood samples were collected into K2EDTA tubes • Tissue collection and processing: following the terminal blood collection, the brain and CSF were collected from each animal.

Setting [4] is: brain Kp = [brain]/[plasma], rat, read-out: Rat brain Kp.
Setting [5] is: brain Kpu,u = Kp * (plasma free/rat brain free), read-out: Rat brain Kpu,u.

≈ marks a conversion by molar mass, not a printed value. Read-outs that look alike come from different tables or passages of the source.

Consider `Nc1nc2cnc(C(=O)N3CCC[C@@H]4Oc5cc(C(F)(F)F)cc(F)c5[C@@H]43)cc2n2cncc12` (single isomer, unassigned) [Fg-53], for which the “Human Predicted Hepatocyte CL” value in series [1] was 2.83 mL/min/kg. In series [2], this molecule displayed a solubility at 24 h of 19.9 µM (≈ 9.4 µg/mL). Also, the Kp in series [3] (setting [4]) was 0.29; in series [3] (setting [5]), 0.05.

On to `Nc1nc2cnc(C(=O)N3CCC[C@@H]4Oc5cc(OC(F)(F)F)cc(F)c5[C@@H]43)cc2n2cncc12` (single isomer, unassigned) [Fg-55], for which the “Human Predicted Hepatocyte CL” value in series [1] was 4 mL/min/kg. Also, the concentration in solution in series [2] (solubility at 24 h) came to 13.7 µM (≈ 6.69 µg/mL). Further, the Kp in series [3] (setting [4]) turned out to be 0.2; in series [3] (setting [5]), 0.05.

In the case of `Nc1nc2cc(F)c(C(=O)N3CCC[C@@H]4Oc5cc(C(F)(F)F)ccc5[C@@H]43)cc2n2cncc12` [Ff-104, (4-amino-7-fluoroimidazo[1,5-a]quinoxalin-8-yl)((4aS,9bS)-7-(trifluoromethyl)-3,4,4a,9b-tetrahydrobenzofuro[3,2-b]pyridin-1(2H)-yl)methanone], in series [1], the “Human Predicted Hepatocyte CL” value was 8.3 mL/min/kg. The molecule also showed a solubility at 24 h in series [2] of less than 1 µM. In addition, the Kp in series [3] (setting [4]) was determined as 0.39; in series [3] (setting [5]), 0.07.

On to `Nc1nc2cnc(C(=O)N3CCC[C@@H]4Oc5c(ccc(C(F)(F)F)c5F)[C@@H]43)cc2n2cncc12` [Ff-109, (4-aminoimidazo[1,5-a]pyrido[3,4-e]pyrazin-8-yl)((4aS,9bS)-6-fluoro-7-(trifluoromethyl)-3,4,4a,9b-tetrahydrobenzofuro[3,2-b]pyridin-1(2H)-yl)methanone], for which the “Human Predicted Hepatocyte CL” value in series [1] is 2.33 mL/min/kg. The molecule further had a solubility at 24 h in series [2] of 2.3 µM (≈ 1.09 µg/mL). Also, the Kp in series [3] (setting [4]) was 0.1; in series [3] (setting [5]) it was 0.02.

With `Nc1nc2cnc(C(=O)N3CCC[C@@H]4Oc5cc(C(F)(F)F)ccc5[C@@H]43)cc2n2cncc12` [Ff-110, (4-aminoimidazo[1,5-a]pyrido[3,4-e]pyrazin-8-yl)((4aS,9bS)-7-(trifluoromethyl)-3,4,4a,9b-tetrahydrobenzofuro[3,2-b]pyridin-1(2H)-yl)methanone], the “Human Predicted Hepatocyte CL” value in series [1] is 3.67 mL/min/kg. Besides, the concentration in solution in series [2] (solubility at 24 h) was 1.7 µM (≈ 0.773 µg/mL). Besides, the Kp turned out to be 0.48 in series [3] (setting [4]) and 0.06 in series [3] (setting [5]).

Consider `Nc1nc2ccc(C(=O)N3CCC[C@@H]4Oc5cc(C(F)(F)F)ccc5[C@@H]43)cc2n2cncc12` [Ff-111, (4-aminoimidazo[1,5-a]quinoxalin-8-yl)((4aS,9bS)-7-(trifluoromethyl)-3,4,4a,9b-tetrahydrobenzofuro[3,2-b]pyridin-1(2H)-yl)methanone], for which, in series [1], the “Human Predicted Hepatocyte CL” value is 5.83 mL/min/kg. In series [2], the solubility at 24 h stood at 1.1 µM (≈ 0.499 µg/mL). Moreover, the Kp was 0.4 in series [3] (setting [4]) and 0.06 in series [3] (setting [5]).

Turning to `Cc1ncc2c(N)nc3cnc(C(=O)N4CCC[C@@H]5Oc6cc(OC(F)(F)F)ccc6[C@@H]54)cc3n12` [Ff-340, (4-amino-1-methylimidazo[1,5-a]pyrido[3,4-e]pyrazin-8-yl)((4aS,9bS)-7-(trifluoromethoxy)-3,4,4a,9b-tetrahydrobenzofuro[3,2-b]pyridin-1(2H)-yl)methanone], the “Human Predicted Hepatocyte CL” value in series [1] was 5 mL/min/kg. The molecule further yielded a solubility at 24 h in series [2] of less than 1 µM. Further, the Kp in series [3] (setting [4]) came out at 0.2; in series [3] (setting [5]), 0.06.

As to `Nc1nc2cnc(C(=O)N3CCC[C@@H]4Oc5cc(OC(F)(F)F)ccc5[C@@H]43)cc2n2cncc12` [Ff-341, (4-aminoimidazo[1,5-a]pyrido[3,4-e]pyrazin-8-yl)((4aS,9bS)-7-(trifluoromethoxy)-3,4,4a,9b-tetrahydrobenzofuro[3,2-b]pyridin-1(2H)-yl)methanone], the “Human Predicted Hepatocyte CL” value in series [1] is 3.67 mL/min/kg. The concentration in solution in series [2] (solubility at 24 h) was 1.7 µM (≈ 0.8 µg/mL). For the same molecule, the Kp in series [3] (setting [4]) came out at 0.37; in series [3] (setting [5]), 0.11.

Turning to `Nc1nc2cnc(C(=O)N3CC[C@H]4C[C@@H]3c3ccc(C(F)(F)F)cc3O4)cc2n2cncc12` [Ff-367, (4-aminoimidazo[1,5-a]pyrido[3,4-e]pyrazin-8-yl)((2S,6R)-9-(trifluoromethyl)-3,4-dihydro-2H-2,6-methanobenzo[b][1,5]oxazocin-5(6H)-yl)methanone], the “Human Predicted Hepatocyte CL” value in series [1] is 2.67 mL/min/kg. For the same molecule, the solubility at 24 h in series [2] is 34.9 µM (≈ 15.9 µg/mL). Moreover, the Kp in series [3] (setting [4]) was found to be 0.32.

As to `Cc1ncn2c1c(N)nc1cnc(C(=O)N3CCC[C@@H]4Oc5cc(C(F)(F)F)ccc5[C@@H]43)cc12` [Ff-499, (4-amino-3-methylimidazo[1,5-a]pyrido[3,4-e]pyrazin-8-yl)((4aS,9bS)-7-(trifluoromethyl)-3,4,4a,9b-tetrahydrobenzofuro[3,2-b]pyridin-1(2H)-yl)methanone], in series [1], the “Human Predicted Hepatocyte CL” value is 4.17 mL/min/kg. This molecule also had a solubility at 24 h in series [2] of less than 1 µM. Further, the Kp in series [3] (setting [4]) is 0.67; in series [3] (setting [5]) it was 0.15.
